Measurements: patent US8778966B2, “Quinolinone derivatives as PARP and tank inhibitors” (Janssen Pharmaceutica, NV, priority 2007, dated 2014)

System: PC-3 cells
Test: Antiproliferative activity, Alamar Blue assay, PC-3 cells
Assay type: cell-based, human
Conditions: Homo sapiens, PC-3, PC3 cells; read-out: PC3 antiproliferative activity pIC50 (converted)
In short: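 Resazurin-based fluorescence (540 nm ex/590 nm em) measured after 4-day compound treatment plus 24 hrs dye incubation at 37° C. Cells plated at 4.5×10^3 cells/ml, adhered 24 hr first. pIC50 from probit-derived IC50 on % viable cells versus untreated, triplicate wells.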

IC50 [µM] | SMILES
10 | Cc1cc2ccc([C@](C)(C#N)[C@@H]3CCc4ccc(Br)cc43)cc2[nH]c1=O [Compound 406]
1.26 | Cc1cc2ccc([C@](C)(C#N)[C@H]3CCc4ccc(Br)cc43)cc2[nH]c1=O [Compound 407]
